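Tested at 5 concentrations; 48 h exposure; 96-well plates; endpoints linearly interpolated, else capped at highest concentration. The concentration for full growth arrest is given as TGI.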
Experiments:
Assay in all cases: NCI tumour cell line growth inhibition, 48 h
HOP-92 NSCLC = system: HOP-92 NSCLC
HL-60(TB) leukemia = system: HL-60(TB) leukemia
SN12C renal = system: SN12C renal
NCI/ADR-RES ovarian = system: NCI/ADR-RES ovarian
NCI-H226 lung = system: NCI-H226 lung
HT29 colon = system: HT29 colon
IGROV1 ovarian = system: IGROV1 ovarian
NCI-H522 lung = system: NCI-H522 lung
A498 renal = system: A498 renal
SK-MEL-5 melanoma = system: SK-MEL-5 melanoma
ACHN renal = system: ACHN renal
K-562 leukemia = system: K-562 leukemia
NCI-H23 lung = system: NCI-H23 lung
MALME-3M melanoma = system: MALME-3M melanoma
SNB-75 CNS = system: SNB-75 CNS
OVCAR-4 ovarian = system: OVCAR-4 ovarian

| SMILES | TGI (HOP-92 NSCLC) | TGI (HL-60(TB) leukemia) | TGI (SN12C renal) | TGI (NCI/ADR-RES ovarian) | TGI (NCI-H226 lung) | TGI (HT29 colon) | TGI (IGROV1 ovarian) | TGI (NCI-H522 lung) | TGI (A498 renal) | TGI (SK-MEL-5 melanoma) | TGI (ACHN renal) | TGI (K-562 leukemia) | TGI (NCI-H23 lung) | TGI (MALME-3M melanoma) | TGI (SNB-75 CNS) | TGI (OVCAR-4 ovarian) |
| --- | --- | --- | --- | --- | --- | --- | --- | --- | --- | --- | --- | --- | --- | --- | --- | --- |
| Cc1cccc(/C=N\NC(=S)N2CCCCC2)n1 | > 100 µM | 0.265 µM | 9.38 µM | 0.43 µM | 0.747 µM | > 100 µM | 0.0702 µM | > 100 µM | 0.347 µM | 0.187 µM | 0.863 µM | > 100 µM | > 100 µM | > 100 µM | 9.32 µM |  |
| Cc1nc(-n2nc(-c3ccccc3)cc2-c2ccccc2)sc1C(=O)/C=C/c1ccc(Cl)c(Cl)c1 |  | 36.7 µM | 44.3 µM |  | 87.6 µM |  | 30 µM | 21.6 µM |  |  | > 100 µM | 63.7 µM | > 100 µM | > 100 µM |  | 81.3 µM |
| Clc1ccc(CCc2ccncn2)c(Cl)c1 | > 100 µM | > 100 µM | > 100 µM |  | > 100 µM | > 100 µM | > 100 µM | > 100 µM | > 100 µM | 51.2 µM | > 100 µM | > 100 µM | > 100 µM | > 100 µM | > 100 µM | > 100 µM |
| COc1ccccc1-n1c(NN)nc2ccc(Br)cc2c1=O |  | 53.1 µM | > 100 µM |  | > 100 µM | > 100 µM | > 100 µM | 63.2 µM |  | 43 µM | > 100 µM | > 100 µM | > 100 µM | > 100 µM | > 100 µM | > 100 µM |

Reference: PubChem BioAssay (NCI)
